Measurements from patent US9293713B2, “Arylamine compound” (RICOH COMPANY, LTD., priority 2012, dated 2016).

What was measured:
[1] = Pyrolysis behavior observed by TG-DTA; assay type: physicochemical; settings: for difference of mass reduced between theoretical value and actual measured value: heating
Method: HTL17 synthesized in Example 1 was heated at a range of 25° C. to 450° C. at a temperature increasing rate of 5° C./min and the pyrolysis behavior thereof was observed by TG-DTA [reference: Al2O3, under nitrogen flow (200 mL/min), EXSTAR6000 (product name), product of Seiko Instruments Inc.].
The results are shown in FIG. 2, where the horizontal axis indicates temperature [° C.], the left-hand vertical axis indicates change in mass [mg] and the right-hand vertical axis indicates DTA signal [μV].

[2] = Preparation of ink (evaluation of solubility): degree of solubility from saturated solution; assay type: physicochemical; settings: for degree of solubility, 1,2,3,4-Tetrahydronaphthalene: solvent 1,2,3,4-tetrahydronaphthalene (Tetralin); for degree of solubility, 2-Propanol: solvent 2-propanol; for degree of solubility, ethyl benzoate: solvent ethyl benzoate; for degree of solubility, Toluene: solvent toluene
Method: HTL17 was added to each of toluene, chloroform, 2-propanol, 1,2,3,4-tetrahydronaphthalene (Tetralin®), ethyl benzoate (100 mL respectively), until undissolved compound was observed. The mixture was stirred for 10 minute with refluxing the solvent. Then, mixture was cooled to ambient temperature, and stirred for 1 hour, followed by still standing for 16 hours. The supernatant was filtrated by PTFE filter having thickness of 0.2 μm to obtain saturated solution. The saturated solution was dried under reduced pressure to calculate degree of solubility for each solvent.
Evaluation criteria in Table 4 was described below.

[3] = saturated solution at ambient temperature

| mass reduction ([1]; from ambient temperature to 250° C., 5° C./min, nitrogen flow) [%] | difference of mass reduced between theoretical value and actual measured value [1] [%] | difference of mass reduced between theoretical value and actual measured value ([1]; prophetic example) [%] | Compound | degree of solubility, 1,2,3,4-Tetrahydronaphthalene [2, 3] | degree of solubility, 2-Propanol [2, 3] | degree of solubility, ethyl benzoate [2, 3] | degree of solubility, Toluene [2, 3] | degree of solubility, 1,2,3,4-Tetrahydronaphthalene ([2]; prophetic example) | degree of solubility, 2-Propanol ([2]; prophetic example) | degree of solubility, ethyl benzoate ([2]; prophetic example) | degree of solubility, Toluene ([2]; prophetic example) |
| --- | --- | --- | --- | --- | --- | --- | --- | --- | --- | --- | --- |
| 40.0 | – | – | CCCCCC(=O)OC1CCC(OC(=O)CCCCC)c2cc(N(c3ccc(-c4ccc(N(c5ccc6c(c5)C(OC(=O)CCCCC)CCC6OC(=O)CCCCC)c5ccc6ccccc6c5)cc4)cc3)c3ccc4ccccc4c3)ccc21 (stereo not drawn) [HTL17] | A (The degree of solubility is not less than 5% by mass) | A (The degree of solubility is not less than 5% by mass) | A (The degree of solubility is not less than 5% by mass) | A (The degree of solubility is not less than 5% by mass) | – | – | – | – |
| – | −0.12 | – | CCCCCC(=O)OC1CCC(OC(=O)CCCCC)c2cc(N(c3ccc(-c4ccc(N(c5ccc6c(c5)C(OC(=O)CCCCC)CCC6OC(=O)CCCCC)c5cccc6ccccc56)cc4)cc3)c3cccc4ccccc34)ccc21 (stereo not drawn) [HTL18] | A (The degree of solubility is not less than 5% by mass) | A (The degree of solubility is not less than 5% by mass) | A (The degree of solubility is not less than 5% by mass) | A (The degree of solubility is not less than 5% by mass) | – | – | – | – |
| – | −0.16 | – | CCCCCC(=O)OC1CCC(OC(=O)CCCCC)c2cc(N(c3ccc(C4(c5ccc(N(c6ccc7c(c6)C(OC(=O)CCCCC)CCC7OC(=O)CCCCC)c6ccc7ccccc7c6)cc5)c5ccccc5-c5ccccc54)cc3)c3ccc4ccccc4c3)ccc21 (stereo not drawn) [HTL33] | A (The degree of solubility is not less than 5% by mass) | B (The degree of solubility is not less than 1% by mass but less than 5% by mass.) | A (The degree of solubility is not less than 5% by mass) | A (The degree of solubility is not less than 5% by mass) | – | – | – | – |
| – | – | −0.18 | CCCCCC(=O)OC1C=C(c2ccc(N(c3ccc(C4=CC(OC(=O)CCCCC)CCC4OC(=O)CCCCC)cc3)c3ccc(-c4ccc(N(c5ccc(C6=CC(OC(=O)CCCCC)CCC6OC(=O)CCCCC)cc5)c5ccc(C6=CC(OC(=O)CCCCC)CCC6OC(=O)CCCCC)cc5)cc4)cc3)cc2)C(OC(=O)CCCCC)CC1 (stereo not drawn) [HTL34] | – | – | – | – | A (The degree of solubility is not less than 5% by mass) | B (The degree of solubility is not less than 1% by mass but less than 5% by mass.) | A (The degree of solubility is not less than 5% by mass) | A (The degree of solubility is not less than 5% by mass) |
| – | – | – | c1ccc2c(c1)-c1ccccc1C2(c1ccc(N(c2ccc3ccccc3c2)c2ccc3ccccc3c2)cc1)c1ccc(N(c2ccc3ccccc3c2)c2ccc3ccccc3c2)cc1 [NPAPF, 9,9-bis[4-(N,N-bis-naphthalene-2-yl-amino)phenyl]-9H-florene, reference compound] | B (The degree of solubility is not less than 1% by mass but less than 5% by mass.) | C (The degree of solubility is less than 1% by mass) | C (The degree of solubility is less than 1% by mass) | B (The degree of solubility is not less than 1% by mass but less than 5% by mass.) | – | – | – | – |
| – | – | – | c1ccc(-c2ccc(N(c3ccc(-c4ccccc4)cc3)c3ccc(-c4ccc(N(c5ccc(-c6ccccc6)cc5)c5ccc(-c6ccccc6)cc5)cc4)cc3)cc2)cc1 [TBPB, N,N,N′,N′-tetra-biphenyl-4-yl-benzidine, reference compound] | – | – | – | – | B (The degree of solubility is not less than 1% by mass but less than 5% by mass.) | C (The degree of solubility is less than 1% by mass) | B (The degree of solubility is not less than 1% by mass but less than 5% by mass.) | A (The degree of solubility is not less than 5% by mass) |
| – | – | – | c1ccc2cc(N(c3ccc(-c4ccc(N(c5ccc6ccccc6c5)c5cccc6ccccc56)cc4)cc3)c3cccc4ccccc34)ccc2c1 [α,β-TNB, 4,4′-bis[N-(1-naphthyl)-N-(2-naphthyl)amino]biphenyl, reference compound] | A (The degree of solubility is not less than 5% by mass) | C (The degree of solubility is less than 1% by mass) | B (The degree of solubility is not less than 1% by mass but less than 5% by mass.) | A (The degree of solubility is not less than 5% by mass) | – | – | – | – |
| – | – | – | c1ccc2cc(N(c3ccc(-c4ccc(N(c5ccc6ccccc6c5)c5cccc6ccccc56)cc4)cc3)c3cccc4ccccc34)ccc2c1 [α-TNB, 4,4′-tetrakis[N-(1-naphthyl)-N-(2-naphthyl)amino]biphenyl, reference compound] | – | – | – | – | B (The degree of solubility is not less than 1% by mass but less than 5% by mass.) | C (The degree of solubility is less than 1% by mass) | B (The degree of solubility is not less than 1% by mass but less than 5% by mass.) | A (The degree of solubility is not less than 5% by mass) |
